According to patent publication US7449495B2, “Retinoid derivatives with antiangiogenic, antitumoral and proapoptotic activities” (Sigma-Tau Industrie Farmaceutiche Riunite S.p.A., priority 2001, dated 2008):

How the values were obtained:
[1] = test system: human no small cell lung carcinoma NCI-H460; test: Antitumoral activity in human no small cell lung carcinoma model NCI-H460; assay type: in vivo; conditions: NCI-H460, 15 mg/kg po
Procedure: The ST1926 solution was prepared immediately before use and solubilised in cremophor:ethanol 1:1 and subsequently diluted 1:4 in buffered saline solution. The animal treatments were administered in a volume of 10 ml/kg. […] Measurements of tumor dimensions were performed using a digital calliper (Vernier Caliper) twice weekly, from the time in which the mass was measurable. The tumor mass was evaluated from the size of the two principal dimensions (length and breadth), expressed in mm, applying the formula (length×breadth^2)/2, that is, the tumor volume in mm3. For each experimental group, the percentage of tumor volume inhibition was calculated (TVI %), with respect to the control, namely (100−(T/C %). TVI was evaluated 2 days after the final administration of ST1926.
A comparison between the TVI values obtained for each group was performed using the non parametric Mann Whitney test for non-paired data, using the Instat software from GraphPad inc.

[2] = test system: Human ovarian carcinoma A2780; test: Cytotoxicity test (sulphorodamine B), A2780; assay type: cell-based; conditions: 24 h incubation, survival 48 h after removal
Excerpt: (§1) Different cell lines deriving from solid tumors were also used. • 1. Human prostate carcinoma PC3 and DU145. These cell lines were maintained in RPMI 1640 medium containing 10% FCS, 1% sodium pyruvate and 1% glutamine; • 2. Human colon adenocarcinoma LoVo. This cell line was maintained in HAM's F-12 medium, containing 10% FCS and 1% glutamine. • 3. Human ovarian carcinoma such as A2780 and A2780/Dx, sensitive and resistant to drugs, respectively (doxorubicin, taxol, etoposide, vincristine); IGROV-1 and IGROV-1/Pt, sensitive and resistant to platinum-based chemotherapy, respectively, were maintained in RPMI 1640 medium containing 10% FCS, 1% sodium pyruvate and 1% glutamine; • 4. Human melanoma MeWo and MeS 2.21, glioblastoma GBM, no small cell lung carcinomas A431, NCI—H460, osteosarcomas SAOS and U2OS were maintained in RPMI 1640 medium containing 10% FCS, 1% sodium pyruvate and 1% glutamine.
(§2) The cytotoxicity tests were carried out using NB4 or HL-60 cells in suspension (10000/well). The cells were seeded in a volume of 250 μl in 96 well plates and incubated for 24 hours at 37° C. […] The optical density was measured using a Multiskan spectrophotometer at 540 nm. […]
(§3) Cell survival was determined by incubation with ST1926 for 24 hours, 48 hours after the removal of the compound. […]

[3] = test system: Human ovarian carcinoma IGROV-1/Pt (platinum resistant); test: Cytotoxicity test (sulphorodamine B), IGROV-1/Pt; assay type: cell-based; conditions: 24 h incubation, survival 48 h after removal
Excerpt: as §1, §2, §3

[4] = test system: vitamin-A deficient hamster trachea in organ culture; conditions: cited from earlier work
[5] = test system: Human ovarian carcinoma A2780/Dx (drug resistant); test: Cytotoxicity test (sulphorodamine B), A2780/Dx; assay type: cell-based; conditions: 24 h incubation, survival 48 h after removal
Excerpt: as §1, §2, §3

Compound: O=C(O)/C=C/c1ccc(-c2ccc(O)c(C34CC5CC(CC(C5)C3)C4)c2)cc1 [ST1926, E-4-(3-(1-adamantyl)-4-hydroxyphenyl)cinnamic acid]
- BWL % Max ([1]; qdx3x3w): 4%
- Lethality ([1]; qdx3x3w): 0/8
- TVI % ± SE ([1]; qdx3x3w): *52 ± 7%
- BWL % Max ([1]; qdx4x3w): 14%
- Lethality ([1]; qdx4x3w): 0/8
- TVI % ± SE ([1]; qdx4x3w): **38 ± 8%
- BWL % Max ([1]; qdx5x3w): 4%
- Lethality ([1]; qdx5x3w): 0/8
- TVI % ± SE ([1]; qdx5x3w): *40 ± 2%
- IC50 [2]: 100 nM
- IC50 [3]: 330 nM
- activity in the TOC assay compared with compound 1 (in words) [4]: lower activities
- IC50 [5]: 200 nM
